Assay results published in patent US10077261B2, “Imidazolin-5-one derivative useful as FASN inhibitors for the treatment of cancer” (Janssen Pharmaceutica NV, priority 2012, dated 2018).

Key:
[1] = system: PC-3M-Luc-C6 prostate cells; test: In vitro PC-3M-Luc-C6 prostate cell proliferation assay in lipid reduced medium; format: cell-based; settings: 96 h, read-out: pIC50 PC-3M-Luc-C6 prostate cell (converted)
Description: PC-3M-Luc-C6 prostate cells were obtained from Xenogen Corporation. Cells were maintained in MEM supplemented with 10% Fetal Calf Serum (FCS, Hyclone), 2 mM glutamine, 1 mM sodium pyruvate, 1% BME vitamins (available from for example, Sigma Aldrich), 0.1 mM non Essential Amino Acid and 50 μg/ml Gentamicin. The cells were passaged twice a week.
The next day 10 μl test compound/DMSO diluted in medium was added (3E-5M, 1E-5M, 3E-6M, 1E-6M, 3E-7M, 1E-7M, 3E-8M, 1E-8M final concentration). Compounds were tested in duplicate. After 96 h incubation at 37° C., 5% CO2 25 μl ATP-glow mix was added. The plate was incubated for 30 min at 37° C. and luminescence was measured with the Envision.
Analysis: Determination of pIC50 Values
pIC50 values were calculated as follows.
where mLC and mHC are the means of the low control wells and high control wells on the plate, after manual exclusion of outliers. The relation between the % Controlmin values and concentration was fitted to a 4-parameter logistic curve using a non-linear least squares regression method to determine the pIC50 value. Outlying data points were excluded manually to get a correct fit. The pIC50 corresponds to −log 10(IC50), if the IC50 is expressed in molar units (http://www.ncbi.nlm.nih.gov/books/NBK91994). The IC50 parameter was always determined by non-linear regression, but one or more of the other parameters may have been held fixed on a relevant input value, such as 0 for the bottom values.

[2] = target: Fatty Acid Synthase Keto-reductase Domain (FASN KR) (Homo sapiens, UniProt P49327); test: Fatty Acid Synthase keto-reductase domain (FASN KR) inhibition, NADPH oxidation at 340 nm
Fatty Acid Synthase Keto-reductase Domain (FASN KR), sequence (P49327 whole entry, the tested form may be a part): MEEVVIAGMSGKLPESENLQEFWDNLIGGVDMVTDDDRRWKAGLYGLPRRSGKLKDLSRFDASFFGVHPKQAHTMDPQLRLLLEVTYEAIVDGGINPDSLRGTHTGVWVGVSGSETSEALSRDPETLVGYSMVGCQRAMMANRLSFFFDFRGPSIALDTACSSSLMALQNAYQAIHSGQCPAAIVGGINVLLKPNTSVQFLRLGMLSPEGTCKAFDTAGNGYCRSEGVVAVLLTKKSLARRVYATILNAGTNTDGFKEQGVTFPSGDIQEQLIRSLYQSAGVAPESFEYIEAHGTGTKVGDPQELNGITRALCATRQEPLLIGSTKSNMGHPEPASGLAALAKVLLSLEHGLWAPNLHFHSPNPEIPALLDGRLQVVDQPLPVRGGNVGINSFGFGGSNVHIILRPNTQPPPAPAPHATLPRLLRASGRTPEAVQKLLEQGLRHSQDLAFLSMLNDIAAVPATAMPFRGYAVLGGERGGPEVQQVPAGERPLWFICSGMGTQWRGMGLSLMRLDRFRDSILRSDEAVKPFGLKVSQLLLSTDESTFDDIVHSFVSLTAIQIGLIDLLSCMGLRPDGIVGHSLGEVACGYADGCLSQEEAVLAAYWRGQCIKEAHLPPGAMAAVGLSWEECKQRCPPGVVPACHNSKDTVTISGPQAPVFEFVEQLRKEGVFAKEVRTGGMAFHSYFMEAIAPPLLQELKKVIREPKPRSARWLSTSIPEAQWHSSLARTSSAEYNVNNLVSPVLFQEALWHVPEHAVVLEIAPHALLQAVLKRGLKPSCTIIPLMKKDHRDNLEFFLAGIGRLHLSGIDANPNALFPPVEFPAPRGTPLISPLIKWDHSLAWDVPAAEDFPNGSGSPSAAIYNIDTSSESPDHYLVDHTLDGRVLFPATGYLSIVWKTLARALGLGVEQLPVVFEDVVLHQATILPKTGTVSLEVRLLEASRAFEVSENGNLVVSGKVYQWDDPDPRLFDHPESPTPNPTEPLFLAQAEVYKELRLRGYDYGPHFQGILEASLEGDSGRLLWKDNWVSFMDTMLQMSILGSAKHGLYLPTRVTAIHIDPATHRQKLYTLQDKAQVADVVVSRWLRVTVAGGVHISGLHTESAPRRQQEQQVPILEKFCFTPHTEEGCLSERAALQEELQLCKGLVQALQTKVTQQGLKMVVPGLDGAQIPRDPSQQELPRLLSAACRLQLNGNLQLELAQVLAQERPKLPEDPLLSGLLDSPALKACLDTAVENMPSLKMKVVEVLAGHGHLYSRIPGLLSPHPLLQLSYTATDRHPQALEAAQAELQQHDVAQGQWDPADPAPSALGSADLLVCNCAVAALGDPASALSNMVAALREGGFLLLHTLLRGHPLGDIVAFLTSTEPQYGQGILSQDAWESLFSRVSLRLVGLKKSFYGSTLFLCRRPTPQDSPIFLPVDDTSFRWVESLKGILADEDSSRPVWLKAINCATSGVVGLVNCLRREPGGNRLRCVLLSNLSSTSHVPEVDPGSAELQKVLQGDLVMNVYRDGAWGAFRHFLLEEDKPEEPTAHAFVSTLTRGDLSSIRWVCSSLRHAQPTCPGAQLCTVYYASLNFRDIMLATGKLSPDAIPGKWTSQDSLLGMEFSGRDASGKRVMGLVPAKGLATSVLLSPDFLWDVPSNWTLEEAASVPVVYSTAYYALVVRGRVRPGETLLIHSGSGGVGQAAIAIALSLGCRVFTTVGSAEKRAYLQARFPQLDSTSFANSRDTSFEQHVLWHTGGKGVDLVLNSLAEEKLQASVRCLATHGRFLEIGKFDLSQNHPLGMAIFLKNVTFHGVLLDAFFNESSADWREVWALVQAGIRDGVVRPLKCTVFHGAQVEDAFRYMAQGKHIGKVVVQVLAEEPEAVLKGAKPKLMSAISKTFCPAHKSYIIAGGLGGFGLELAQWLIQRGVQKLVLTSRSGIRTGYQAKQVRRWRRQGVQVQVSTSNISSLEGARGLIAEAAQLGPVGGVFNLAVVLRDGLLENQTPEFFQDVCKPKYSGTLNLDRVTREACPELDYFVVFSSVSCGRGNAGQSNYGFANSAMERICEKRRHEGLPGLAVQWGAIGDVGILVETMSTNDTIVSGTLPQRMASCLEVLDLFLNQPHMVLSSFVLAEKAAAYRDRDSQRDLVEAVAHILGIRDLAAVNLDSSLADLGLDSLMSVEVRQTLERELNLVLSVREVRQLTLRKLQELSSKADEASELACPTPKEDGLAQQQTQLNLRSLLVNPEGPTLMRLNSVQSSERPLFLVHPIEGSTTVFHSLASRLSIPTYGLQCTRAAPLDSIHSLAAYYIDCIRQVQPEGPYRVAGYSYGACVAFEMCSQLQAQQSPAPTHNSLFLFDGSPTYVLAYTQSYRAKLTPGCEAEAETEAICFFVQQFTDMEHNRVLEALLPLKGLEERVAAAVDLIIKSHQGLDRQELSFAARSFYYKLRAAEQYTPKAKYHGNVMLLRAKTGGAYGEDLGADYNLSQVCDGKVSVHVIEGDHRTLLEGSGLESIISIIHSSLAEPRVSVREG
Description: After 20 minutes incubation at room temperature the plate was measured again (T2).
The decrease in absorbance was calculated as (Absorbance before incubation T1)−(Absorbance following incubation T2).
A plot of Controlmin versus test compound concentration was fitted to a 4-parameter logistic curve using a non-linear least squares regression method.

[3] = target: T1, hFASN enzyme (full length) (Homo sapiens, UniProt P49327); test: Fatty Acid Synthase (FASN) inhibition scintillation proximity assay; format: biochemical; settings: for inhibition at 10 µM: read-out: Human FASN % inhibition @ 10 μM, 10 μM test compound; for IC50: read-out: Human FASN pIC50 (converted)
T1 construct: 10 μL hFASN enzyme (full length, 300 ng, purified in house); made in house
T1 sequence (P49327 whole entry): as the sequence (P49327 whole entry, the tested form may be a part) above
Outline: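 Scintillation proximity format: in-house full-length enzyme, 300 ng per well, pH 7.5 phosphate/DTT buffer, ³H-acetyl-CoA and malonyl-CoA. Emission counted on LEADseeker at 610 nm at least 24 h after stopping.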

A2780 ovarian cells [4] = test: A2780 ovarian cell proliferation assay in lipid reduced medium, with palmitate (MTT); format: cell-based; settings: Homo sapiens, A2780, 96 h; read-out: pIC50 A2780 Ovarian Cell, With Palmitate (converted)
Outline: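 In this palmitate-supplemented format, compound dilutions (30 μM down to 0.01 μM) are added to cells in lipid-reduced serum with 25 μM palmitate, 0.2% fatty-acid-free BSA and 0.25% ethanol. After four days (96 h) MTT absorbance at 544 nm is recorded and fitted by minimum sum of squares.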

A2780 ovarian cells [5] = test: A2780 ovarian cell proliferation assay in lipid reduced medium, without palmitate (MTT); format: cell-based; settings: Homo sapiens, A2780, 96 h; read-out: pIC50 A2780 Ovarian Cell, Without Palmitate (converted)
[6] = system: LNCaP-Vancouver prostate cells; test: In vitro LNCaP Vancouver prostate cell proliferation assay in lipid reduced medium; format: cell-based; settings: read-out: pIC50 LNCaP_Vancouver prostate cell (converted)

Cc1cc(-c2ccc3c(c2)c(Cl)nn3C)ccc1C1=NC2(CC2)C(=O)N1CC1CN(C(=O)C2CC2)C1 [compound 591, 5-[4-(3-Chloro-1-methyl-1H-indazol-5-yl)-2-methylphenyl]-6-{[1-(cyclopropylcarbonyl)azetidin-3-yl]methyl}-4,6-diazaspiro[2.4]hept-4-en-7-one]
IC50 [1]: 372 nM
IC50 [2]: 1050 nM
inhibition at 10 µM [3]: 93%
IC50 [3]: 195 nM
IC50 (A2780 ovarian cells [4]): > 10000 nM
IC50 (A2780 ovarian cells [5]): ~347 nM

Cc1cc(-c2ccc3c(cnn3C)c2)ccc1C1=NC2(CC2)C(=O)N1CC1CN(C(=O)C(C)(C)CO)C1 [compound 546, 6-{[1-(3-Hydroxy-2,2-dimethylpropanoyl)azetidin-3-yl]methyl}-5-[2-methyl-4-(1-methyl-1H-indazol-5-yl)phenyl]-4,6-diazaspiro[2.4]hept-4-en-7-one]
IC50 [1]: ~309 nM
IC50 [2]: 603 nM
inhibition at 10 µM [3]: 100%
IC50 [3]: 204 nM
IC50 (A2780 ovarian cells [4]): > 10000 nM
IC50 (A2780 ovarian cells [5]): ~195 nM

O=C(C1CC1)N1CC[C@@H](CN2C(=O)C3(CC3)N=C2c2ccc(-c3c[nH]c4ccccc34)cc2)C1 [compound 314, (R)-5-(4-(1H-indol-3-yl)phenyl)-6-((1-(cyclopropanecarbonyl)pyrrolidin-3-yl)methyl)-4,6-diazaspiro[2.4]hept-4-en-7-one]
IC50 [1]: 57.5 nM
IC50 [6]: 309 nM

O=C(C1CC1)N1CC(CN2C(=O)C3(CC3)N=C2c2ccc(-c3ccc4ccccc4n3)cc2)C1 [compound 345, 6-((1-(cyclopropanecarbonyl)azetidin-3-yl)methyl)-5-(4-(quinolin-2-yl)phenyl)-4,6-diazaspiro[2.4]hept-4-en-7-one]
IC50 [1]: 562 nM
inhibition at 10 µM [3]: 99%
IC50 [6]: 1200 nM

Cc1cc(-c2ccc3cc(C)c(Cl)nc3c2)ccc1C1=NC2(CC2)C(=O)N1CC1CN(C(=O)C2(C)CC2)C1 [compound 596]
IC50 [1]: ~759 nM
IC50 [2]: 589 nM
inhibition at 10 µM [3]: 102%
IC50 [3]: 186 nM
IC50 (A2780 ovarian cells [4]): 6310 nM
IC50 (A2780 ovarian cells [5]): 457 nM

Cn1ncc2cc(-c3ccc(C4=NC5(CC5)C(=O)N4C[C@@H]4CCN(C(=O)C5CC5)C4)cc3F)ccc21 [compound 405, 6-{[(3R)-1-(Cyclopropylcarbonyl)pyrrolidin-3-yl]methyl}-5-[3-fluoro-4-(1-methyl-1H-indazol-5-yl)phenyl]-4,6-diazaspiro[2.4]hept-4-en-7-one]
IC50 [1]: 457 nM
IC50 (A2780 ovarian cells [4]): > 10000 nM
IC50 (A2780 ovarian cells [5]): 479 nM

O=C(C1CC1)N1CC(CN2C(=O)C3(CC3)N=C2c2ccc(-c3ccc4cc[nH]c4c3)c(F)c2)C1 [compound 442, 6-{[1-(Cyclopropylcarbonyl)azetidin-3-yl]methyl}-5-[3-fluoro-4-(1H-indol-6-yl)phenyl]-4,6-diazaspiro[2.4]hept-4-en-7-one]
IC50 [1]: 513 nM
IC50 [2]: 339 nM
inhibition at 10 µM [3]: 94%
IC50 [3]: 200 nM
IC50 (A2780 ovarian cells [4]): > 10000 nM
IC50 (A2780 ovarian cells [5]): 257 nM

O=C(C1CC1)N1CC[C@@H](CN2C(=O)C3(CC3)N=C2c2ccc(-c3nc4ccccc4[nH]3)cc2)C1 [compound 497, 5-[4-(1H-Benzimidazol-2-yl)phenyl]-6-{[(3R)-1-(cyclopropylcarbonyl)pyrrolidin-3-yl]methyl}-4,6-diazaspiro[2.4]hept-4-en-7-one]
IC50 [1]: 479 nM
IC50 [6]: 5370 nM

COCCN1CCC2(CC1)N=C(c1ccc(-c3ccc4occc4c3)cc1)N(C[C@@H]1CCN(C(=O)C3CC3)C1)C2=O [compound 749, 2-[4-(1-Benzofurann-5-yl)phenyl]-3-{[(3R)-1-(cyclopropylcarbonyl)pyrrolidin-3-yl]methyl}-8-(2-methoxyethyl)-1,3,8-triazaspiro[4.5]dec-1-en-4-one]
IC50 [1]: 759 nM
IC50 [2]: 603 nM
inhibition at 10 µM [3]: 97%
IC50 [3]: 138 nM
IC50 (A2780 ovarian cells [4]): > 10000 nM
IC50 (A2780 ovarian cells [5]): 1550 nM

O=C(C1CC1)N1CC[C@@H](CN2C(=O)C3(CC3)N=C2c2ccc(-c3cccc(NS(=O)(=O)C4CC4)c3)cc2F)C1 [compound 318]
IC50 [1]: 52.5 nM
IC50 [2]: 123 nM
inhibition at 10 µM [3]: 100%
IC50 [3]: 66.1 nM
IC50 (A2780 ovarian cells [4]): > 10000 nM
IC50 (A2780 ovarian cells [5]): ~70.8 nM

Cc1cc(-c2ccc3cc(OC(C)C)ccc3c2)ccc1C1=NC2(CC2)C(=O)N1CC1CN(C(=O)C2(C)CC2)C1 [compound 581, 6-({1-[(1-Methylcyclopropyl)carbonyl]azetidin-3-yl}methyl)-5-{2-methyl-4-[6-(1-methylethoxy)naphthalen-2-yl]phenyl}-4,6-diazaspiro[2.4]hept-4-en-7-one]
IC50 [1]: ~295 nM
IC50 [2]: 631 nM
inhibition at 10 µM [3]: 93%
IC50 [3]: 316 nM
IC50 (A2780 ovarian cells [4]): 4270 nM
IC50 (A2780 ovarian cells [5]): ~200 nM

O=C(C1CC1)N1CC[C@@H](CN2C(=O)C3(CCCC3)N=C2c2ccc(-c3ccc4occc4c3)cc2)C1 [compound 2, 2-[4-(1-Benzofuran-5-yl)phenyl]-3-{[(3R)-1-(cyclopropylcarbonyl)pyrrolidin-3-yl]methyl-}3-diazaspiro[4.4]non-1-en-4-one]
IC50 [1]: ~661 nM
IC50 [2]: 89.1 nM
inhibition at 10 µM [3]: 109%
IC50 [3]: 45.7 nM
IC50 (A2780 ovarian cells [4]): > 10000 nM
IC50 (A2780 ovarian cells [5]): 977 nM

O=C(C1CC1)N1CC(CN2C(=O)C3(CC3)N=C2c2ccc(-c3cccc4[nH]ncc34)c(F)c2)C1 [compound 443, 6-{[1-(Cyclopropylcarbonyl)azetidin-3-yl]methyl}-5-[3-fluoro-4-(1H-indazol-4-yl)phenyl]-4,6-diazaspiro[2.4]hept-4-en-7-one]
IC50 [1]: 851 nM
IC50 [2]: 1050 nM
inhibition at 10 µM [3]: 88%
IC50 [3]: 912 nM
IC50 (A2780 ovarian cells [4]): > 10000 nM
IC50 (A2780 ovarian cells [5]): 794 nM

COC(=O)N1CC2(C1)N=C(c1ccc(-c3ccc4c(cnn4C)c3)cc1)N(C[C@@H]1CCN(C(=O)C3CC3)C1)C2=O [compound 737, Methyl 7-{[(3R)-1-(cyclopropylcarbonyl)pyrrolidin-3-yl]methyl}-6-[4-(1-methyl-1H-indazol-5-yl)phenyl]-8-oxo-2,5,7-triazaspiro[3.4]oct-5-ene-2-carboxylate]
IC50 [1]: 708 nM
IC50 [6]: ~3720 nM

O=C(Nc1cccc(-c2ccc(C3=NC4(CC4)C(=O)N3C[C@@H]3CCN(C(=O)C4CC4)C3)c(F)c2)c1)C1CC1 [compound 585, N-[4′-(6-{[(3R)-1-(Cyclopropylcarbonyl)pyrrolidin-3-yl]methyl}-7-oxo-4,6-diazaspiro[2.4]hept-4-en-5-yl)-3′-fluorobiphenyl-3-yl]cyclopropanecarboxamide]
IC50 [1]: 100 nM
IC50 [2]: 162 nM
inhibition at 10 µM [3]: 99%
IC50 [3]: 112 nM
IC50 (A2780 ovarian cells [4]): > 10000 nM
IC50 (A2780 ovarian cells [5]): 83.2 nM

Cn1cnc2cc(-c3ccc(C4=NC5(CC5)C(=O)N4CC4CN(C(=O)C5CC5)C4)cc3)ccc21 [compound 343, 6-((1-(cyclopropanecarbonyl)azetidin-3-yl)mehtyl)-5-(4-(1-methyl-1H-benzo[d]imidazol-5-yl)phenyl)-4,6-diazaspiro[2.4]hept-4-en-7-one]
IC50 [1]: 81.3 nM
inhibition at 10 µM [3]: 98%
IC50 [6]: 240 nM

Cc1cc2cc(-c3ccc(C4=NC5(CC5)C(=O)N4CC4CN(C(=O)C5CC5)C4)c(C)c3)ccc2[nH]1 [compound 263, 6-((1-(cyclopropanecarbonyl)azetidin-3-yl)methyl)-5-(2-methyl-4-(2-methyl-1H-indol-5-yl)phenyl)-4,6-diazaspiro[2.4]hept-4-en-7-one]
IC50 [1]: 112 nM
IC50 [2]: 251 nM
inhibition at 10 µM [3]: 105%
IC50 [3]: 51.3 nM
IC50 (A2780 ovarian cells [4]): > 10000 nM
IC50 (A2780 ovarian cells [5]): 120 nM

Cc1cc(-c2ccc3c(c2)c(CO)nn3C)ccc1C1=NC2(CC2)C(=O)N1CC1CN(C(=O)C2CC2)C1 [compound 586, 6-{[1-(Cyclopropylcarbonyl)azetidin-3-yl]methyl}-5-{4-[3-(hydroxymethyl)-1-methyl-1H-indazol-5-yl]-2-methylphenyl}-4,6-diazaspiro[2.4]hept-4-en-7-one]
IC50 [1]: 1020 nM
IC50 [2]: 1660 nM
inhibition at 10 µM [3]: 93%
IC50 [3]: 525 nM
IC50 (A2780 ovarian cells [4]): > 10000 nM
IC50 (A2780 ovarian cells [5]): ~851 nM
